Columns and labels:
[1] = Encapsulation efficiency (indirect assay, magnetic bead removal, UV-visible/HPLC of supernatant); assay type: physicochemical; settings: 69 nM AuNPs
Method: The AuNPs and the drug are brought into contact in a screw-cap 2 mL microtube, with magnetic bar stirring, at 37° C. for a time determined according to the kinetics of encapsulation obtained by UV-visible spectroscopy.
In the case of travoprost, an encapsulation time of five days was chosen according to the encapsulation kinetics determined by UV spectroscopy at 278 nm (FIG. 9).
The method used to determine the encapsulation efficiency rely on an indirect assay by evaluating what has not been encapsulated. Once the encapsulation is complete, the entire mixture is brought into contact with magnetic beads to allow the nanoparticles that contain the encapsulated drug to be removed from the medium. The residual supernatant is then analyzed by UV-visible spectroscopy and high-performance liquid chromatography (HPLC).
To do so, a solution of 0.0005% phosphate buffered saline Tween™ (PBS-T) was prepared. The magnetic beads were then cleaned and 100 μL of magnetic beads were placed in a 1.5 mL microtube. The beads were then magnetized, and the supernatant was removed.
1 mL of the prepared PBS-T was added to the beads, the beads were then suspended with a vigorous vortex for 30 seconds. The beads were then magnetized, and the supernatant was removed. […]
The final supernatant was analyzed by UV-Visible spectroscopy (λ=200-700 nm) and by high-performance liquid chromatography (HPLC).

[2] = test system: intraocular pressure in glaucomatous mice; experiment: Intraocular pressure in microbead-induced hypertensive glaucoma model; assay type: in vivo, C57BL/6J mice
Method: An in vivo glaucoma model involving the injection of exogenous microbeads into the anterior chamber was used (FIG. 17A). The injected beads partially block the trabecular meshwork resulting in intraocular pressure (IOP) elevation while causing no damage to the site of drug action. Two-month-old C57BL/6J mice were used. The IOP was followed with a tonometer (Tonolab®) specially designed for rodents. Animals were injected with 5 μL of microbeads with a dimeter of about 10 μm (7.2×10^6 microbeads/mL) in the anterior chamber of the left eye. For the encapsulation experiments, travoprost was solubilized in water/ethanol (50/50) in the presence of AuNPs. The solution was heated (65° C.) in order to evaporate the ethanol and to induce conformational changes of PEG molecules leading to a better encapsulation. The solution was thus completed with water until the initial volume. Hypertensive glaucoma was induced in adult C57BL/6 mice by injecting 5 μL of polystyrene microbeads (35,000 microbeads) with an average diameter of 10 μm in the anterior chamber of the eye. The dispersion of the microbeads at the level of the iridocorneal angle blocks the passage of the aqueous humor towards the trabecular meshwork (FIG. 17A). Mechanically, the decrease in drainage of the aqueous humor produces an increase in intraocular pressure which is measured with a tonometer of the Tonolab brand. […]

- Percentage of encapsulated travoprost ([1]; initial 80 μM travoprost): about 68.52%±4.032
- Percentage of encapsulated travoprost ([1]; initial 120 μM travoprost): about 67.98%±3.877
Compound: CC(C)OC(=O)CCC/C=C\C[C@@H]1[C@@H](/C=C/[C@@H](O)COc2cccc(C(F)(F)F)c2)[C@H](O)C[C@@H]1O [travoprost]
- Level of intraocular pressure after 24 hours ([2]; 24 hours after single topical application): returned to a high level, similar to that before treatment
- Effect on intraocular pressure ([2]; single topical application, glaucomatous mice): significantly but transiently decreased

Source: patent publication US20190374478A1, “Ultrastable Gold Nanoparticles For Drug Delivery Applications And Synthesis Thereof” (Université Laval, priority 2016, published 2019)
